The values that follow come from patent US4943587A, “Hydroxamate derivatives of selected nonsteroidal antiinflammatory acyl residues and their use for cyclooxygenase and 5-lipoxygenase inhibition” (Warner-Lambert Company, priority 1988, dated 1990).

Structures are written as SMILES.

For data set [1], the target named is T1, Cyclooxygenase (Rattus norvegicus, UniProt Q63921).
T1 construct: host or cells: RBL-1 (rat basophilic leukemia)
T1 sequence (Q63921 27-602): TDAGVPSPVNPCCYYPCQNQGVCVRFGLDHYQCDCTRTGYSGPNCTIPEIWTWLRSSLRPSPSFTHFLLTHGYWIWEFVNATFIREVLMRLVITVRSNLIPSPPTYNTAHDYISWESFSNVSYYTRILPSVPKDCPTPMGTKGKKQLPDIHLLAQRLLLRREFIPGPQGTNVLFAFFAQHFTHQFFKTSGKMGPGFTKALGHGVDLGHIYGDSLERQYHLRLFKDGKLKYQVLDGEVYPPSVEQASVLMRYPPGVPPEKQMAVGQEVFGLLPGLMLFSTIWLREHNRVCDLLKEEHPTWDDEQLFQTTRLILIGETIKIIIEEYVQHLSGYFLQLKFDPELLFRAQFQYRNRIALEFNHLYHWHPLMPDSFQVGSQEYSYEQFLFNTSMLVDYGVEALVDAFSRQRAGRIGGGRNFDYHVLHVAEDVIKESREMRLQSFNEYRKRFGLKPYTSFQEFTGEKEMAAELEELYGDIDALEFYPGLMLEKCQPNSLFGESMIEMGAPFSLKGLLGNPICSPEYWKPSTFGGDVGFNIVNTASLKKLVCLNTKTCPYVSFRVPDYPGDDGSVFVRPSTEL
Put plainly: ARBC: RBL-1 whole cell cyclooxygenase assay (inhibition of PGF2α formation). Type of data set: cell-based. Particulars: RBL-1 cells, A23187 5 μM; for % inhibition ARBC (RBL whole cell cyclooxygenase, PGF2α inhibition): @ 32 (μM); for IC50: PGF2α formation. From the text:
(§1) ARBL/ARBC Whole Cell 5-Lipoxygenase and Cyclooxygenase Assays
(§2) The rat basophilic leukemia cell line (RBL-1) was obtained from the American Type Culture Collection (Rockville, Md.).
(§3) Radioimmuno assay (RIA) kits of LTB4 and PGF2α were obtained from Amersham (Arlington Heights, Ill.) and Seragen (Boston, Mass.) respectively.
(§4) Cells are harvested by centrifugation. They are washed with cold phosphate buffered saline pH 7.4 (PBS; NaCl, 7.1 g; Na2 PO4, 1.15 g; KH2 PO4, 0.2 g; and KCl, 0.2 g/l). […] Calcium ionophore A23187 (5 μM) is added and cells are incubated for seven minutes at 37° C. The reaction is stopped by chilling the tubes on ice for ten minutes. Cells are separated by centrifugation and the supernatant is stored at -20°. Aliquots (100 μl) are analyzed for LTB4 and PGF2α using radioimmuno assay kits as provided by the supplier.

For a further data set, the target named is T2, 5-Lipoxygenase (Rattus norvegicus, UniProt P12527).
T2 construct: host or cells: RBL-1 (rat basophilic leukemia)
T2 sequence (P12527 1-673): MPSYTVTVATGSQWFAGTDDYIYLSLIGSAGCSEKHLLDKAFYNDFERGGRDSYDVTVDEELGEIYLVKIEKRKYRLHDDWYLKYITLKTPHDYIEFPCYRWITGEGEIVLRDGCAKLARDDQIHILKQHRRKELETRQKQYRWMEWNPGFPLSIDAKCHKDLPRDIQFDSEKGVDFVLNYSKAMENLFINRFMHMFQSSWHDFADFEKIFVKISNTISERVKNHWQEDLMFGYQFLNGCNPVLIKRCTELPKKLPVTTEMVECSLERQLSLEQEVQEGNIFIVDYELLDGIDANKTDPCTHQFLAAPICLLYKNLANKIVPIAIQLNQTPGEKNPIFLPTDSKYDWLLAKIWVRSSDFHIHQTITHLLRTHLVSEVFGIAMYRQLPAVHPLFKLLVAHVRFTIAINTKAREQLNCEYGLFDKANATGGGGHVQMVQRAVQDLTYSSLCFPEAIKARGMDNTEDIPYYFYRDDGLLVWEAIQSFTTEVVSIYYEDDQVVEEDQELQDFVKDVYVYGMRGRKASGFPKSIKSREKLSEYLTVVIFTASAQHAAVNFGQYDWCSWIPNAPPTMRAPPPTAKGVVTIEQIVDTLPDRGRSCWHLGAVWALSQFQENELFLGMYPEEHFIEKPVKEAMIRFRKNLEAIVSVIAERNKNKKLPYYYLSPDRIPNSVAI
Put plainly: ARBL: RBL-1 whole cell 5-lipoxygenase assay (inhibition of LTB4 formation). Format: cell-based. Particulars: RBL-1 cells, A23187 5 μM. The method, then: as §1, §2, §3
RBL-1 cells are grown in suspension culture in Eagle's minimum essential medium supplemented with 12% fetal bovine serum at 37° C. in an incubator supplied with air-5% carbon dioxide. Cells are harvested by centrifugation. They are washed with cold phosphate buffered saline pH 7.4 (PBS; NaCl, 7.1 g; Na2 PO4, 1.15 g; KH2 PO4, 0.2 g; and KCl, 0.2 g/l). Cells are finally suspended in PBS containing 1.0 mM calcium at a density of 2×10^6 cells/ml. Cells are incubated with and without test agent (in DMSO) (1% DMSO is without effect on arachidonic acid metabolism) for ten minutes at room temperature. Calcium ionophore A23187 (5 μM) is added and cells are incubated for seven minutes at 37° C. The reaction is stopped by chilling the tubes on ice for ten minutes. Cells are separated by centrifugation and the supernatant is stored at -20°. Aliquots (100 μl) are analyzed for LTB4 and PGF2α using radioimmuno assay kits as provided by the supplier.

For data set [2], the system named is Carrageenan-induced rat foot paw edema. As to the kind of experiment: Carrageenan-induced rat foot paw edema (CFE-2) assay. The following applies: read-out: CFE % Inhibition @ Dose; for inhibition in vivo at 30 mg/kg: 30 mg/kg PO; for inhibition in vivo at 30 mg/kg / inhibition in vivo at 10 mg/kg: 1 h before carrageenan, edema at 5 h; for inhibition in vivo at 10 mg/kg: 10 mg/kg PO. Type of data set: in vivo. The procedure:
Carrageenan-Induced Rat Foot Paw Edema-2 (CFE-2) Assay: Protocol
Carrageenan solution (1% w/v) is prepared by dissolving 100 mg carrageenan (Marine Colloidal Div., Springfield, N.J.) in 10 ml of sterile saline (0.9%) solution (Travenol). The solution is vortexed for thirty to forty-five minutes. Animals are dosed with compound one hour before carrageenan challenge. Foot paw edema is induced by injecting 0.05 ml of the 1% carrageenan subcutaneously into the plantar portion of the right hind paw of each rat under light anesthesia. Initial foot paw volume is measured immediately following carrageenan challenge using mercury plethysmography (Buxco Electronics). Edema is measured five hours after carrageenan. The difference between the five-hour and the initial paw volume is expressed as delta edema. The delta edema for each test group of animals is used to calculate the percent inhibition of edema achieved by the compound at the test dose compared with the vehicle control group. The ID25 (the dose at which swelling is inhibited by 25%) was calculated by probit analysis for the dose at which a result of 25 percent inhibition occurs.
In general terms: The carrageenan paw model is a standard test of acute inflammation.

Data set [3] concerns Mycobacterium-induced rat footpad edema. Put plainly: Mycobacterium-induced rat footpad edema (MFE) assay. Format: in vivo. Particulars: swelling at 72 h; for ED40: Rattus norvegicus, po, probit analysis, read-out: MFE ID40 (dose at which swelling is inhibited by 40%). The procedure:
Mycobacterium - Induced Rat Footpad Edema Assay (MFE): Protocol
Myobacterium butyricum (5 mg/ml) is suspended in paraffin oil by sonication for ten minutes in an ice bath. Footpad edema is induced on Day 0 by injecting 0.1 ml of the Mycobacterium mixture into the left hindpaw of lightly anesthetized rats. Swelling in the injected hindpaw is determined by mercury plethysmography seventy-two hours after injection. Groups of rats are treated with test compounds (suspended in 0.5% hydroxypropyl methylcellulose with 0.2% Tween-80) or vehicle one hour before Myobacterium injection and on Days 1 and 2. Inhibition of swelling is determined by comparing the change in hindpaw volume in compound- and vehicle-treated rats. An ID40 (the dose at which swelling is inhibited by 40%) was calculated by probit analysis.

A short description of data set [4]: Gastric ulcerogenicity (UD). Format: in vivo, Male outbred Wistar rats. The following applies: rat, in vivo, po. The procedure:
(§5) Gastric Ulcerogenicity (UD) Protocol
(§6) Male outbred Wistar rats (100-250 gms) were fasted for twenty-four hours. After fasting, test compounds were administered orally (in 2 ml/Kg of 0.5% hydroxypropyl methylcellulose) and the rats were denied access to food and water for six more hours. The rats were then sacrificed with CO2 so that the stomachs could be removed, opened along the greater curvature, and evaluated for the presence of gastric ulcers. Results are expressed as the percent of rats with gastric ulcers at a given dose.

Data set [5] has as its system Cyclooxygenase. Put plainly: ARBC: RBL-1 whole cell cyclooxygenase assay (inhibition of PGF2α formation). Format: cell-based, rat. Particulars: ARBL/ARBC IC50; >1.0 cyclooxygenase selective, <1.0 5-lipoxygenase selective.
Excerpt: as §1, §2, §3, §4

Another data set has as its system gastric ulcers in rats. As to the kind of experiment: Gastric ulcerogenicity (UD). Format: in vivo, Male outbred Wistar rats. The following applies: 100 mg/kg PO, fasted rats, 6 h. The procedure:
as §5, §6

For the molecule `CC1=C(CC(=O)NO)c2cc(F)ccc2/C1=C\c1ccc([S+](C)[O-])cc1` (stereo not drawn) [Example 2A, (Z)-6-fluoro-N-hydroxy-2-methyl-3-[[4-(methylsulfinyl)phenYl]methylene]-3H-indene-1-acetamide], the “% inhibition ARBC (RBL whole cell cyclooxygenase, PGF2α inhibition)” value (from here on “% inhibition ARBC”) at Cyclooxygenase [1] is 0%. Besides, on 5-Lipoxygenase, the midpoint of inhibition, the IC50, lay at 12.9 µM. For the same molecule, in data set [2], the inhibition in vivo at 30 mg/kg was determined as 31%. For the same molecule, the “MFE % Inhibition @ Dose” value in data set [3] (50 mg/kg PO) is recorded as 53%.
Regarding `COc1ccc2c(c1)c(CC(=O)NO)c(C)n2C(=O)c1ccc(Cl)cc1` [Oxametacin, reference compound], half-maximal inhibition on 5-Lipoxygenase (IC50) required 7.5 µM. The inhibition in vivo at 30 mg/kg in data set [2] amounted to 46%. Besides, in data set [4], the TD50 at 6 h was determined as 103 mg/kg.
Take `CC1=C(CC(=O)N(C)O)c2cc(F)ccc2/C1=C\c1ccc([S+](C)[O-])cc1` (stereo not drawn) [Example 1, (Z)-6-fluoro-N-hydroxy-N,2-dimethyl-3-[[4-(methylsulfinyl)phenyl]methylene]-3H-indene-1-acetamide]: on Cyclooxygenase [1], the “% inhibition ARBC” value turned out to be 0%. Moreover, it took 1 µM to reach half-maximal inhibition on 5-Lipoxygenase (IC50). The inhibition in vivo at 30 mg/kg in data set [2] turned out to be 15%. The “MFE % Inhibition @ Dose” value in data set [3] (10 mg/kg PO) came out at 30%.
Consider `COc1ccc2c(c1)c(CC(=O)N(O)C1CCCCC1)c(C)n2C(=O)c1ccc(Cl)cc1` [Example 6, 1-(4-Chlorobenzoyl)-N-cyclohexyl-N-hydroxy-5-methoxy-2-methyl-1H-indole-3-acetamide], for which the IC50 – broadly, the concentration needed to halve the response being measured – against Cyclooxygenase [1] amounted to 0.1 µM; against 5-Lipoxygenase it was 1.6 µM. In addition, in the data set on Cyclooxygenase [5], the “RATIO, selectivity of inhibition” value came out at 16.0. In data set [2], the inhibition in vivo at 10 mg/kg is 22%. Besides, the ED40 in data set [3] came out at 4.7 mg/kg.
As to `COc1ccc2c(c1)c(CC(=O)O)c(C)n2C(=O)c1ccc(Cl)cc1` [Indomethacin, 1(p-chlorobenzoyl)-5-methoxy-2-methylindole-3-acetic acid, reference compound], on 5-Lipoxygenase, the IC50 is above 100 µM. Also, in data set [2] (po, 5 h), the inhibition in vivo at 5 mg/kg is 36%. Further, in data set [3], the ED40 amounted to 0.21 mg/kg.
For `CONC(=O)Cc1c(C)n(C(=O)c2ccc(Cl)cc2)c2ccc(OC)cc12` [Example 4, 1-(4-Chlorobenzoyl)-N,5-dimethoxy-2-methyl-1H-indole-3-acetamide], the IC50 at Cyclooxygenase [1] came to 0.2 µM; on 5-Lipoxygenase, 24 µM. In the data set with Cyclooxygenase [5], the “RATIO, selectivity of inhibition” value came out at 120. In data set [2], the inhibition in vivo at 10 mg/kg worked out at 40%. For the same molecule, the TD50 at 6 h in data set [4] came to 42 mg/kg.
In turn, `COc1ccc2c(c1)c(CC(=O)N(C)O)c(C)n2C(=O)c1ccc(Cl)cc1` [Example 3, 1-(4-Chlorobenzoyl)-N-hydroxy-5-methoxy-N,2-dimethyl-1H-indole-3-acetamide] gave an IC50 against 5-Lipoxygenase of 1.4 µM. Besides, in data set [2], the inhibition in vivo at 10 mg/kg stood at 29%. In data set [3], the ED40 is below 2 mg/kg. In addition, the “percent of rats with gastric ulcers at a given dose (UD50 column)” value with gastric ulcers in rats stood at 10%.
As to `CONC(=O)CC1=C(C)/C(=C/c2ccc([S+](C)[O-])cc2)c2ccc(F)cc21` (stereo not drawn) [Example 2, (Z)-6-fluoro-N-methoxy-2-methyl-3-[[4-(methylsulfinyl)phenyl]methylene]-3H-indene-1-acetamide], the “% inhibition ARBC” value on Cyclooxygenase [1] was 0%. Besides, the midpoint of inhibition at 5-Lipoxygenase, the IC50, lay at 26.4 µM.
Take `COc1ccc2c(c1)c(CC(=O)N(O)C(C)C)c(C)n2C(=O)c1ccc(Cl)cc1` [Example 5, 1-(4-Chlorobenzoyl)-N-hydroxy-5-methoxy-2-methyl-N-(1-methylethyl)-1H-indole-3-acetamide]: at 5-Lipoxygenase, the IC50 stood at 0.9 µM. Also, the inhibition in vivo at 10 mg/kg in data set [2] was 27%. The ED40 in data set [3] is 0.82 mg/kg.
